What was measured:
non-diabetic rats = assay: Intestinal delivery of insulin patches in non-diabetic rats (blood glucose); format: in vivo, Sprague Dawley (SD) rats; details: 10 IU/kg in the intestine
Experimental: Intestinal delivery of insulin patches in non-diabetic rats: All animal experiments were4conducted under aseptic conditions using institutionally approved protocols. Male Sprague Dawley (SD) rats, weighing 350-450 g fasted for 16 hours were anesthetized using gas anesthesia (1.25-4% isofluorane in oxygen). Rat intestine was exposed through a midline abdominal incision (2.0 cm). A small longitudinal incision (5 mm) was made about 5 cm from the proximal end of the small intestine. Patches (3-6 pieces, 2 mm in diameter) containing insulin (0.4-1.2 IU/patch, totally 5 IU/kg or 10 Iu/kg per rat) were randomly inserted through the opening into the lumen. The incisions were then sealed by surgical tissue (NEXABAND®, Veterinary Products Laboratories, Phoenix, Ariz.). […] Blood glucose level was measured using a glucometer (Excite® XL, Bayer Corporation, Elkhart, Ind.). […] The areas above the glucose curve (AAC) were calculated by the trapezoidal method (Carino G P, Jacob J S, Mathiowitz E. 2000. Nanosphere based oral insulin delivery. J Controlled Release 65:261-269). The apparent relative pharmacological bioavailability of insulin from non-diabetic rats was calculated by comparing the AAC following intestinal administration under different doses with that following subcutaneous administration.

[1] = format: in vitro ADME, rat
Experimental: The experiment was performed in an in vitro perfusion device.
Patches (2 mm×2 mm) were put into intestine lumen (3 cm in length). One end of the lumen was connected to an infusion inlet, while the other end was connected to a receiving tube. Phosphate buffer solution (PBS) was infused in a constant rate (0.05 ml/min) into the lumen. The entire device was placed on a magnetic stirrer panel, and samples were taken from PBS outside the lumen at predetermined time interval. […] This perfusion system mimics in-vivo intestine fluid movement.
Bioavailability of drug transport from these patches was calculated. Bioavailability refers to the ratio of the amount of drug transported across the intestine to the total amount of drug released at the site of absorption.

[2] = Leakage of drug from patch edges; format: physicochemical; details: within 10 minutes
Text: In a regular patch without the microspheres structure, when the patch is cut into smaller pieces, drug in the reservoir layer easily leaks from along the breaking edges. In the presence of the microspheres structure, the breakpoint usually occurs between mircrospheres, which make it difficult for the drug to penetrate through the backing layer. So, with the help of microspheres structure, the leakage of drug from the patch can be substantially controlled. Though drug could leak from those microspheres along the edge, where their coating would possibly be broken, for microspheres located away from the edge no leakage can be seen. In a quantitative measurement, within 10 minutes, 60% of sulforhodamine B was lost from the edges in patch.without microspheres structure, while only 10% leaked in the presence of this microspheres structure.

[3] = Unidirectional release of drug from compressed patches in diffusion cell (PBS); format: physicochemical
Experimental: (2) Unidirectional Release of Drug from Compressed Patches: Release of a model drug (Sulforhodamine B) from patches was measured in vitro into phosphate buffered saline (PBS, pH 7.4, 0.01 M). To distinguish drug release from the mucoadhesive side and the backing side of the patch, the patches were placed in a custom-designed diffusion cell. The cell comprised two chambers placed side-by-side with an opening provided between the chambers of about 3.14 mm^2. A patch (4 mm in diameter) was placed between the two chambers and each chamber was filled with 6 ml PBS. Vacuum grease was used to seal the joint to avoid leakage of PBS. Amount of sulforhodamine B released from either side of the patch into the solution was quantified at 565 nm using a spectrophotometer (UV-1601, Shimadzu Corporation).
To assess whether unidirectionality of release is also observed when the patch is placed on the intestine, the following experiments were performed. A section of pig intestine was placed on a diffusion cell such that the mucosal side faced the upper (donor) chamber. The donor chamber was filled with 2 ml PBS. Under these conditions, the thickness of the PBS layer on the intestine was about […]. A sulforhodamine-containing patch (4 mm in diameter) was prepared using methods described above was gently placed on the intestine. A stirring bar was placed on a mesh, which was placed about 1 cm above the patch. The receiver chamber was filled with 12 ml PBS. A stirring bar was placed in the receiver chamber. The cell was placed on a magnetic stirrer and stirred at 400 rpm for 120 minutes. Amount of sulforhodamine B released into donor and receiver chambers was measured using the same spectrophotometer described above. Percentages of sulforhodamine B delivered into the receiver and donor chambers were calculated (Figure 12). By measuring the total amount of sulforhodamine B released from the patch, the percent of sulforhodamine B delivered into the intestine was also calculated.

fraction transported across rat intestine from patches compared to solution form [1]	sulforhodamine B leaked from the edges ([2]; patch in the presence of microspheres structure)	sulforhodamine B lost from the edges ([2]; patch without microspheres structure)	difference in release profile when different compression pressures were used during patch preparation [3]	drug released from the backing side of the patch ([3]; 120 minutes, PBS pH 7.4)	drug released from the mucoadhesive side of the patch ([3]; 120 minutes, PBS pH 7.4)	share of released drug that was released from the mucoadhesive side ([3]; compressed patch)	Compound	hypoglycemia after administration in the intestine (non-diabetic rats)
							insulin solution: bovine insulin solution (pH 7), negative control administered in the intestine at 10 IU/kg	did not produce detectable hypoglycemia
higher fraction	10%	60%	no significant difference	less than 0.3%	about 10%	more than 97%	CCN(CC)c1ccc2c(-c3ccc(S(=O)(=O)O)cc3S(=O)(=O)[O-])c3ccc(=[N+](CC)CC)cc-3oc2c1 [sulforhodamine B]	

Source: patent publication US20030017195A1, “Method for oral drug delivery” (priority 2001, published 2003)
